Test results: patent publication US20210187046A1, “COCKTAIL COMPOSITIONS COMPRISING RESPIRATORY ANTIBACTERIAL PHAGES AND METHODS OF USE THEREOF” (priority 2019, published 2021)
Values after ≈ are worked out from the molar mass of the structure shown. Where two headings read alike, the source gives them in different places.

How the values were obtained:
[1] = system: K. pneumoniae bacterial isolates (n=36); experiment: Antibiotic susceptibility testing by disk diffusion; assay type: cell-based, Klebsiella pneumoniae; settings: EUCAST cut-off values
Description: A selected group of K. pneumoniae bacterial isolates were collected between 2005 and 2019 (n=36), in at least 7 different health care facilities. Overall, these isolates were collected from hospital settings (n=25), outpatients (n=9), or from unknown origin (n=2), and from a diversity of biological products [urine (n=10), respiratory secretions (n=5), unknown (n=8), abdominal fluids (n=5) and others (n=8)]. This panel was evaluated with regards to antibiotic susceptibility testing by disk diffusion method against a selected panel of clinically important antibiotics (β-lactam antibiotics—ampicillin, ceftazidime, piperacillin with tazobactam, and meropenem; fluoroquinolones—ciprofloxacin; aminoglycosides—gentamicin; and sulphonamides—trimethoprim with sulfamethoxazole). Interpretation of results was performed according to the cut-off values recommended by the European Committee on Antimicrobial Susceptibility Testing (EUCAST, http://mic.eucast.org/Eucast2/). Isolates were considered multidrug resistant (MDR) when presenting non-susceptibility to three or more structurally unrelated classes of antibiotics (Magiorakos A P, Srinivasan A, Carey R B., Carmeli Y, Falagas M E, et al. 2011. Clin Microbiol Infect 2012; 18: 268-281).

[2] = system: P. aeruginosa PSA_1992/05; experiment: Broth microdilution MIC with and without bacteriophage cocktail; assay type: cell-based, Pseudomonas aeruginosa
Description: The method was developed and optimized as a proof of concept for P. aeruginosa using a single strain infected by all three phages (PSA_1992/05; NCIMB deposit 42914)). […] Different time points (4 h, 6 h, 12 h and 18 h) were used for optimization of the technique, but final readings were determined at 18 h. All experiments were conducted in duplicates. The study was optimized for the individual bacteriophages and a final assay is presented here containing data for the complete cocktail.

[3] = in the presence of bacteriophage cocktail TP-122A at MOI 0.1, 18 h
[4] = in the presence of bacteriophage cocktail TP-122A at MOI 1, 18 h
[5] = in the presence of bacteriophage cocktail TP-122A at MOI 10, 18 h
[6] = Pseudomonas aeruginosa, No Phage, reading at 18 h, read-out: MIC

| Molecule | isolates non-susceptible [1] [%] | MIC ([2]; No Phage, reading at 18 h) | MIC [2, 3] [µg/mL] | MIC [2, 4] [µg/mL] | MIC [2, 5] [µg/mL] | MIC [2, 6] [µg/mL] | MIC ([2]; Pseudomonas aeruginosa, 18 h) [µg/mL] |
| --- | --- | --- | --- | --- | --- | --- | --- |
| CC1(C)S[C@@H]2[C@H](NC(=O)[C@H](N)c3ccccc3)C(=O)N2[C@H]1C(=O)O [ampicillin] | 100 | – | – | – | – | – | – |
| CC(C)(O/N=C(\C(=O)N[C@@H]1C(=O)N2C(C(=O)[O-])=C(C[n+]3ccccc3)CS[C@H]12)c1csc(N)n1)C(=O)O [C/ZD, ceftazidime] | 86.1 | .5 µg/mL (≈ 0.915 µM) | ≤0.016 | ≤0.016 | ≤0.016 | – | – |
| CC(=O)NC[C@H]1CN(c2ccc(N3CCOCC3)c(F)c2)C(=O)O1 [LZD, linezolid] | – | – | ≤0.016 | ≤0.016 | ≤0.016 | > 32 | – |
| piperacillin with tazobactam [TZP] | 97.2 | 1 µg/mL | ≤0.016 | ≤0.016 | ≤0.016 | – | – |
| CN[C@H](CC(C)C)C(=O)N[C@H]1C(=O)N[C@@H](CC(N)=O)C(=O)N[C@H]2C(=O)N[C@H]3C(=O)N[C@H](C(=O)N[C@H](C(=O)O)c4cc(O)cc(O)c4-c4cc3ccc4O)[C@H](O)c3ccc(c(Cl)c3)Oc3cc2cc(c3O[C@@H]2O[C@H](CO)[C@@H](O)[C@H](O)[C@H]2O[C@H]2C[C@](C)(N)[C@H](O)[C@H](C)O2)Oc2ccc(cc2Cl)[C@H]1O [VA, vancomycin] | – | – | ≤0.016 | ≤0.016 | ≤0.016 | – | > 32 |
| O=C(O)c1cn(C2CC2)c2cc(N3CCNCC3)c(F)cc2c1=O [ciprofloxacin] | 91.7 | – | – | – | – | – | – |
| gentamicin | 72.2 | – | – | – | – | – | – |
| NCC[C@H](O)C(=O)N[C@@H]1C[C@H](N)[C@@H](O[C@H]2O[C@H](CN)[C@@H](O)[C@H](O)[C@H]2O)[C@H](O)[C@H]1O[C@H]1O[C@H](CO)[C@@H](O)[C@H](N)[C@H]1O [AK, amikacin] | – | – | ≤0.016 | ≤0.016 | ≤0.016 | 0.5 (≈ 0.854 µM) | – |
| C[C@@H](O)[C@H]1C(=O)N2C(C(=O)O)=C(S[C@@H]3CN[C@H](C(=O)N(C)C)C3)[C@H](C)[C@H]12 [MEM, meropenem] | 77.8 | – | ≤0.016 | ≤0.016 | ≤0.016 | 0.25 (≈ 0.652 µM) | – |
| trimethoprim with sulfamethoxazole | 88.9 | – | – | – | – | – | – |
| colistin [CS] | – | 0.25 µg/mL | ≤0.016 | ≤0.016 | ≤0.016 | – | – |
